# Data reported in patent publication US9464053B2, “Compositions for reducing Aβ 42 production and their use in treating alzheimer's disease (AD)” (KAREUS THERAPEUTICS SA, priority 2010, dated 2016).
# Where a name gives a salt, the structure may show the parent alone. Read-outs that look alike come from different tables or passages of the source. Marks after values point to notes of the source that are not given here.
# Experiments:
# [1] = system: Aβ42 secretion; assay: Reduction of Aβ42 production in human neuronal SH-SY5Y cells (sandwich ELISA of cell media); assay type: cell-based; conditions: read-out: Aβ42 IC50
# Experimental: We used the human Neuroblastoma SH-SY5Y cells for drug testing as a model for Aβ42 production. […] Cell toxicity was monitored using the MTT assay and all data reported are corrected for any cell loss.
# The capture antibody, detection antibody and secondary antibody as well as standard purified preparations of Aβ42 were obtained from Sigma-Aldrich. Cells were cultured for 24 h in the presence or absence of compounds and the conditioned medium was subjected to sELISA.
# Cells were incubated overnight with increasing concentrations the compounds. The cell media was then harvested and Aβ42 in the media was quantitated using sandwich ELISA.
# [2] = system: Aβ-42 levels in brain; assay: Brain Aβ-42 levels in rat after two weeks oral treatment (ELISA); assay type: in vivo; conditions: for Aβ-42 levels Mean ± SE: rat brain, soluble fraction; for Percentage change: vs Control
# Experimental: Animals are randomized into different treatment groups based on body weight. The test compounds are administered orally for 2 weeks while the control animals are administered the vehicle alone.
# At the end of the study, animals are sacrificed 2 hours after the last dose and brain samples are excised and immediately frozen on dry ice. The frozen brains are homogenized in 3 volumes (w/v) of ice-cold 0.2% Diethylamine containing 50 mM NaCl, pH 10, and protease inhibitors, and then centrifuged at 15000 rpm at 4° C. for 30 min using a centrifuge. The resulting supernatant is retained as the soluble fraction and neutralized by addition of 10% 0.5 M Tris-HCl, pH 6.8.
# Ar3-42 levels in brain tissue extracts were determined by ELISA. […] 100 μL of this was coated per well in a 96 well immunoplate (NUNC) at 4° C. for 16-18 hours. The plate was washed 3× with 230 μL of wash buffer. The wells were then blocked with 150 μL of blocking buffer for 1 hour. The plate was washed 3× with 230 μL of wash buffer. Samples, standard (2500-1.1 ng/ml) and blank were added to the appropriate wells and incubated with mild shaking for 2 hours. The plate was then washed 3× with 230 μL of wash buffer. […] 100 μL of this was added per well and incubated with mild shaking for 2 hours. The plate was washed 3× with 230 μl of wash buffer. 100 lit of Detection antibody, Anti-rabbit IgG whole molecule HRP conjugate (Sigma A6154 diluted 1:1000 with 1% BSA) added in to the wells and incubated for 2 hours with mild shaking. The plate was washed 3× with 230 μl of wash buffer followed by 100 μL of Strepavidin HRP (1:200 diluted with 1% BSA). The plate was 3× with 230 μL of wash buffer and 100 μL of TMB/H2O2 substrate was added and incubated for 20 minutes. The reaction was topped by adding 50 μL of 2N H2SO4 and the absorbance was measured at 450/570 nm in a microplate reader (BioTek)
# [3] = system: Wistar rats; assay: Morris water maze task, scopolamine memory deficit; assay type: in vivo, rat; conditions: mean, p.o., scopolamine-treated
# Experimental: Male wistar rats are used for this study. The Water maze consists of a 1.8 m diameter; 0.6 m high circular tank filled with water (24±2° C.). A platform 16 cm diameter will be placed 1.0 cm below the water surface in the center of one of the four imaginary quadrants, which remains constant for all the rats. […] Rats were lowered gently, feet first into water. A rat was allowed to swim for 60 s to find the platform. If the platform was found during this time the trial was stopped and rat was allowed to stay on platform for 30 s before being removed from the maze. If the platform was not found during 60 s trial, then the rat was manually placed on the platform facing a visual cue and allowed to stay on platform for 30 s before being removed from the maze. The rats were taken off the platform (ensuring that the rat sees the investigator's hand from the front before removal) and dried with a towel gently. Each rat received 4 trials in a day. The maze has 8 starting points. On the first and third day the animals started from 1st, 3rd, 5th & 7th starting points. On the second and fourth day the animals started from 2nd, 4th, 6th & […] starting points. Retention of the task was assessed on 5th day in which each animal received a single 120 s probe trial during which platform was removed from the pool. Rats were not treated prior to retention trail. Rats were placed under a heating lamp for 5 min before being returned to its home cage. Latency to reach the platform ([…]), swim speed (cm/s) and path length (cm) was measured in acquisition trials. Percentage time spent in target quadrant (quadrant in which platform is placed during acquisition training) and swim speed (cm/s) was calculated in probe trial. The animals were tracked and the data was generated using the Video Mot 2 software. Experimentation was carried out over a period of 10 days i.e. first 6 animals was experimented on first five days and the next 6 animals was experimented on next five days (Pretreatment and testing schedule was initiated accordingly such that all animals receive 9 doses of vehicle or test drug). Data obtained was analyzed by Repeated measures Two way ANOVA followed by Bonferroni post tests by using the Graph pad prism software package.
# [4] = system: soluble brain aβ-42; assay: Tg2576 transgenic mouse model, soluble brain aβ-42 (ELISA); assay type: in vivo; conditions: Tg 2576 mice, 4 weeks, 50 mg/kg orally daily
# Experimental: (§1) The study used 6-month old Tg (HuApp695.K670-M671L) 2576 transgenic and age-matched C57B16/SJL non-transgenic control mice (Hsiao K, Chapman P, Nilsen S, Eckman C, Harigaya Y, et al. Correlative memory deficits, Abeta elevation, and amyloid plaques in transgenic mice. Science. 1996; 274:99-102). Mice were obtained from Jackson Labs and a colony was established. Tg2576 transgenic mice over-express human APP with the double Swedish mutation. Tg2756 and control mice were treated for a period of 4 weeks with either 1) vehicle alone n=10), 2) compound 9 (50 mg/kg dosed orally; n=10). Soluble brain aβ-42 and aβ-40 were measured using the typical ELISA protocol described before.
# [5] = system: soluble brain aβ-40; assay: Tg2576 transgenic mouse model, soluble brain aβ-40 (ELISA); assay type: in vivo; conditions: Tg 2576 mice, 4 weeks, 50 mg/kg orally daily
# Experimental: as §1
# [6] = SH-SY5Y cells incubated overnight, Aβ42 in media by sandwich ELISA
# [7] = Day-1 acquisition trials, 1 mg/kg
# [8] = Day-1 acquisition trials, 3 mg/kg
# [9] = Day-1 acquisition trials, 10 mg/kg
# [10] = Day-2 acquisition trials, 1 mg/kg
# [11] = Day-2 acquisition trials, 3 mg/kg
# [12] = Day-2 acquisition trials, 10 mg/kg
# [13] = Day-3 acquisition trials, 1 mg/kg
# [14] = Day-3 acquisition trials, 3 mg/kg
# [15] = Day-3 acquisition trials, 10 mg/kg
# [16] = Day-4 acquisition trials, 1 mg/kg
# [17] = Day-4 acquisition trials, 3 mg/kg
# [18] = Day-4 acquisition trials, 10 mg/kg
compound,measurement,setting,value
"C=CCc1ccc(OC(=O)C(NC(=O)c2cccnc2)C(C)CC)c(OC)c1 (centres unmarked) [Compound 6, 3-methyl-2-[pyridine-3-carbonyl]-amino-pentanoic acid-4-allyl-2-methoxy phenyl ester]",IC50,[1]; [6],> 52.2 µM
"C=CCc1ccc(OC(=O)C(NC(=O)c2cccnc2)C(C)C)c(OC)c1 (centres unmarked) [Compound 3, 3-methyl-2-[pyridine-3-carbonyl]-amino-butyric acid-4-allyl-2-methoxy phenyl ester]",IC50,[1]; [6],> 52.2 µM
"C=CCc1ccc(OC(=O)C(CCC(=O)O)NC(=O)c2cccnc2)c(OC)c1 (centres unmarked) [Compound 7, 2-[pyridine-3-carbonyl-amino]-pentane dioic acid-1-(4-allyl-2-methoxyphenyl)ester]",IC50,[1]; [6],> 52.2 µM
"C=CCc1ccc(OC(=O)C(CC(C)C)NC(=O)c2cccnc2)c(OC)c1 (centres unmarked) [Compound 15, 4-methyl-2-[pyridine-3-carbonyl]-amino-pentanoic acid-4-allyl-2-methoxy phenyl ester]",IC50,[1]; [6],> 52.2 µM
"C=CCc1ccc(OC(=O)C2CCCN2C(=O)c2cccnc2)c(OC)c1 (centres unmarked) [Compound 10, 1-(pyridine-3-carbonyl)-pyrrolidine-2-carboxylic acid 4-allyl-2-methoxy-phenyl ester]",IC50,[1]; [6],33.4 µM
C=CCc1ccc(OC(=O)C(Cc2c[nH]c3ccccc23)NC(=O)c2cccnc2)c(OC)c1 (centres unmarked) [Compound 4],IC50,[1]; [6],> 52.2 µM
"C=CCc1ccc(OC(=O)CNC(=O)c2cccnc2)c(OC)c1 [Compound 11, [(pyridine-3-carbonyl)-amino]-acetic acid 4-allyl-2-methoxy-phenyl ester]",IC50,[1]; [6],15.9 µM
"C=CCc1ccc(OC(=O)COC(=O)c2cccnc2)c(OC)c1 (as salt: hydrochloride) [Compound 8, nicotinic acid 4-allyl-2-methoxy-phenoxycarbonylmethyl ester]",melting point,,109.3 to 111.2 °C
"C=CCc1ccc(OC(=O)CCCNC(=O)c2cccnc2)c(OC)c1 [Compound 13, 4[(pyridine-3-carbonyl)-amino]-butyric acid-4-allyl-2-methoxy phenyl ester]",IC50,[1]; [6],26.1 µM
"C=CCc1ccc(OC(=O)C(CCSC)NC(=O)c2cccnc2)c(OC)c1 (centres unmarked) [Compound 2, 4-methyl-sulfanyl-2-[(pyridine-3carbonyl)-amino] butyric acid-4-allyl-2-methoxy phenyl ester]",IC50,[1]; [6],> 52.2 µM
"C=CCc1ccc(OC(=O)C(Cc2ccc(O)cc2)NC(=O)c2cccnc2)c(OC)c1 (centres unmarked) [Compound 5, 3-(4-hydroxyphenyl)2-[(pyridine-3-carbonyl)amino]propionic acid-4-allyl-2-methoxy phenyl ester]",IC50,[1]; [6],> 52.2 µM
"C=CCc1ccc(OC(=O)CC(OC(=O)c2cccnc2)C(=O)OC)c(OC)c1 (centres unmarked) [Compound 9, 2-(Pyridine-3-carbonyloxy)-succinic acid 4-(4-allyl-2-methoxy-phenyl) ester 1-methyl ester]",IC50,[1]; [6],18.7 µM
same,Aβ-42 levels Mean ± SE,"[2]; 10 mg/kg oral, 2 weeks",44.14 ± 7.88 ng/mg protein
same,Aβ-42 levels Mean ± SE,"[2]; 25 mg/kg oral, 2 weeks",31.03 ± 3.98 ng/mg protein
same,Aβ-42 levels Mean ± SE,"[2]; 50 mg/kg oral, 2 weeks",21.85 ± 1.75 ng/mg protein
same,Percentage change,"[2]; 10 mg/kg oral, 2 weeks",−22%
same,Percentage change,"[2]; 25 mg/kg oral, 2 weeks",−45%
same,Percentage change,"[2]; 50 mg/kg oral, 2 weeks",−61%
same,Path length,[3]; [7],1423.43 cm
same,Swim speed,[3]; [7],26.53 cm/s
same,Target latency,[3]; [7],53859.40 ms
same,Path length,[3]; [8],1329.08 cm
same,Swim speed,[3]; [8],25.77 cm/s
same,Target latency,[3]; [8],50283.22^ ms
same,Path length,[3]; [9],1480.57 cm
same,Swim speed,[3]; [9],26.93 cm/s
same,Target latency,[3]; [9],54445.94 ms
same,Path length,[3]; [10],1619.28 cm
same,Swim speed,[3]; [10],30.67 cm/s
same,Target latency,[3]; [10],51421.60 ms
same,Path length,[3]; [11],1503.53 cm
same,Swim speed,[3]; [11],29.97 cm/s
same,Target latency,[3]; [11],48347.97^ ms
same,Path length,[3]; [12],1755.96 cm
same,Swim speed,[3]; [12],31.99 cm/s
same,Target latency,[3]; [12],53382.85 ms
same,Path length,[3]; [13],1414.4745^ cm
same,Swim speed,[3]; [13],31.07 cm/s
same,Target latency,[3]; [13],43128.23 ms
same,Path length,[3]; [14],1038.10** cm
same,Swim speed,[3]; [14],28.45** cm/s
same,Target latency,[3]; [14],32780.27** ms
same,Path length,[3]; [15],1509.45 cm
same,Swim speed,[3]; [15],30.89^ cm/s
same,Target latency,[3]; [15],45171.54 ms
same,Path length,[3]; [16],1233.92* cm
same,Swim speed,[3]; [16],29.51* cm/s
same,Target latency,[3]; [16],40643.54 ms
same,Path length,[3]; [17],946.10*** cm
same,Swim speed,[3]; [17],28.57*** cm/s
same,Target latency,[3]; [17],31915.04*** ms
same,Path length,[3]; [18],1254.41^ cm
same,Swim speed,[3]; [18],29.36** cm/s
same,Target latency,[3]; [18],40663.06 ms
same,reduction of brain levels of soluble aβ-42,[4],22%
same,reduction of brain levels of soluble aβ-40,[5],23%
"CCC(C)(C)C(=O)O[C@H]1C[C@@H](C)C=C2C=C[C@H](C)[C@H](CC[C@@H]3C[C@@H](O)CC(=O)O3)[C@H]21 [Simvastatin, reference compound]",Percentage change,"[2]; Simvastatin 250 mg/kg oral, group terminated on day 12",8%
"C=CCc1ccc(OC(=O)COC(=O)c2cccnc2)c(OC)c1 [Compound 8, nicotinic acid 4-allyl-2-methoxy-phenoxycarbonylmethyl ester]",IC50,[1]; SH-SY5Y,> 15 µM
"C=CCc1ccc(OC(=O)C(C)NC(=O)c2cccnc2)c(OC)c1 (centres unmarked) [Compound 14, 4-allyl-2-methoxyphenyl 2-(nicotinamido) propanoate]",IC50,[1]; [6],15.4 µM
